Blank lines part the entries; values can stand above or below the molecule they belong to.
Tested on: K12877-001-R-J1-PDC complex spheroid viability
Experiment: Anticancer human tumor K12877-001-R-J1-PDC patient-derived lung adenocarcinoma cell line growth inhibition [RAS]
Settings: for IC50: curve of first compound; for viability, T/C: stronger effect = lower value
How it was run: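 Multi-cell-type spheroids: tumor cells plus HUVEC endothelial cells and mesenchymal stem cells. RAS-pathway inhibitors were combined with targeted agents, each dosed in half-log steps down from clinical Cmax, or from 10 microM when Cmax was unknown.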

[1] = second compound 0.00316 µM, first compound 0.0316 µM
[2] = second compound 0.00316 µM, first compound 0.1 µM
[3] = second compound 0.00316 µM, first compound 0.316 µM
[4] = second compound 0.00316 µM, first compound 1 µM
[5] = second compound 0.00316 µM, first compound 3.16 µM
[6] = second compound 0.00316 µM, first compound 10 µM
[7] = second compound 0.01 µM, first compound 0.0316 µM
[8] = second compound 0.01 µM, first compound 0.1 µM
[9] = second compound 0.01 µM, first compound 0.316 µM
[10] = second compound 0.01 µM, first compound 1 µM
[11] = second compound 0.01 µM, first compound 3.16 µM
[12] = second compound 0.01 µM, first compound 10 µM
[13] = second compound 0.0316 µM, first compound 0.0316 µM
[14] = second compound 0.0316 µM, first compound 0.1 µM
[15] = second compound 0.0316 µM, first compound 0.316 µM
[16] = second compound 0.0316 µM, first compound 1 µM
[17] = second compound 0.0316 µM, first compound 3.16 µM
[18] = second compound 0.0316 µM, first compound 10 µM
[19] = second compound 0.1 µM, first compound 0.0316 µM
[20] = second compound 0.1 µM, first compound 0.1 µM
[21] = second compound 0.1 µM, first compound 0.316 µM
[22] = second compound 0.1 µM, first compound 1 µM
[23] = second compound 0.1 µM, first compound 3.16 µM
[24] = second compound 0.1 µM, first compound 10 µM
[25] = second compound 0.316 µM, first compound 0.0316 µM
[26] = second compound 0.316 µM, first compound 0.1 µM
[27] = second compound 0.316 µM, first compound 0.316 µM
[28] = second compound 0.316 µM, first compound 1 µM
[29] = second compound 0.316 µM, first compound 3.16 µM
[30] = second compound 0.316 µM, first compound 10 µM
[31] = second compound 1 µM, first compound 0.0316 µM
[32] = second compound 1 µM, first compound 0.1 µM
[33] = second compound 1 µM, first compound 0.316 µM
[34] = second compound 1 µM, first compound 1 µM
[35] = second compound 1 µM, first compound 3.16 µM
[36] = second compound 1 µM, first compound 10 µM
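Note: spheroids exposed to agents for one week before readout.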
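Throughout, for viability, T/C: tumour cells co-cultured with HUVEC and mesenchymal stem cells in spheroids.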

IC50 (second compound 0.00316 µM): 4030 nM
IC50 (second compound 0.01 µM): 1190 nM
IC50 (second compound 0.0316 µM): 1640 nM
IC50 (second compound 0.1 µM): 1290 nM
IC50 (second compound 0.316 µM): 710 nM
IC50 (second compound 1 µM): 745 nM
SMILES: CC1(O)CCCC1n1c(=O)c(C(F)F)cc2cnc(NC3CCN(S(C)(=O)=O)CC3)nc21 (centres undefined) + C=CC(=O)N1CCN(c2nc(OCC3CCCN3C)nc3c(F)c(-c4nc(N)cc(C)c4C(F)(F)F)c(Cl)cc23)C(C)C1
viability, T/C [1]: 105%
viability, T/C [2]: 79.9%
viability, T/C [3]: 68.2%
viability, T/C [4]: 64%
viability, T/C [5]: 71.9%
viability, T/C [6]: 2.13%
viability, T/C [7]: 96.1%
viability, T/C [8]: 75.3%
viability, T/C [9]: 49.5%
viability, T/C [10]: 68.7%
viability, T/C [11]: 34.4%
viability, T/C [12]: 2.51%
viability, T/C [13]: 88.1%
viability, T/C [14]: 84.9%
viability, T/C [15]: 56.4%
viability, T/C [16]: 63.1%
viability, T/C [17]: 43.9%
viability, T/C [18]: 2.83%
viability, T/C [19]: 94.5%
viability, T/C [20]: 78.7%
viability, T/C [21]: 59.2%
viability, T/C [22]: 53.1%
viability, T/C [23]: 48.4%
viability, T/C [24]: 2.13%
viability, T/C [25]: 102%
viability, T/C [26]: 71.1%
viability, T/C [27]: 58.7%
viability, T/C [28]: 45.3%
viability, T/C [29]: 41.2%
viability, T/C [30]: 2.43%
viability, T/C [31]: 95%
viability, T/C [32]: 80.7%
viability, T/C [33]: 43.7%
viability, T/C [34]: 60.7%
viability, T/C [35]: 42.2%
viability, T/C [36]: 2.22%

IC50 (second compound 0.00316 µM): 1690 nM
IC50 (second compound 0.01 µM): 1430 nM
IC50 (second compound 0.0316 µM): 1580 nM
IC50 (second compound 0.1 µM): 1400 nM
IC50 (second compound 0.316 µM): 1480 nM
IC50 (second compound 1 µM): 1440 nM
SMILES: CCC(CC)c1cc(NC2CCC(N)C2)n2nccc2n1 (centres undefined) + C=CC(=O)N1CCN(c2nc(OCC3CCCN3C)nc3c(F)c(-c4nc(N)cc(C)c4C(F)(F)F)c(Cl)cc23)C(C)C1
viability, T/C [1]: 97%
viability, T/C [2]: 94.7%
viability, T/C [3]: 98%
viability, T/C [4]: 89.6%
viability, T/C [5]: 2.45%
viability, T/C [6]: 0.94%
viability, T/C [7]: 91.2%
viability, T/C [8]: 99.4%
viability, T/C [9]: 93.2%
viability, T/C [10]: 71.3%
viability, T/C [11]: 2.11%
viability, T/C [12]: 0.91%
viability, T/C [13]: 99.3%
viability, T/C [14]: 95.7%
viability, T/C [15]: 86.2%
viability, T/C [16]: 81.5%
viability, T/C [17]: 2.25%
viability, T/C [18]: 1.53%
viability, T/C [19]: 85.2%
viability, T/C [20]: 78.3%
viability, T/C [21]: 83.4%
viability, T/C [22]: 70%
viability, T/C [23]: 1.91%
viability, T/C [24]: 0.93%
viability, T/C [25]: 88.3%
viability, T/C [26]: 91.9%
viability, T/C [27]: 86.3%
viability, T/C [28]: 74.7%
viability, T/C [29]: 2.48%
viability, T/C [30]: 0.97%
viability, T/C [31]: 86.2%
viability, T/C [32]: 80.6%
viability, T/C [33]: 94.8%
viability, T/C [34]: 72.5%
viability, T/C [35]: 1.96%
viability, T/C [36]: 1.06%
